Legend:
Type in all cases: in vivo
barnyardgrass [1] = test: Test Example 1: herbicidal effects in preemergence treatment under submerged conditions; details: dose 2.52 g/a
Summary of the method: (§1)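 Weed seeds and 2.5-leaf rice seedlings shared each flooded cup of alluvial soil. Dosing, expressed as g per are, was by pouring water-diluted emulsifiable concentrate onto the surface on sowing day. Mortality was graded 0 to 5 after three weeks' growth.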

bulrush [2] = test: as above; details: dose 2.52 g/a
Summary of the method: as §1

ducksalad [3] = test: as above; details: dose 2.52 g/a
Summary of the method: as §1

transplanted rice = test: Test Example 1: preemergence treatment under submerged conditions, effect on crop; details: dose 2.52 g/a
Summary of the method: as §1

barnyardgrass [4] = test: Test Example 2: herbicidal effects during the vegetation period under submerged conditions; details: treatment during the vegetation period under submerged conditions; dose 2.52 g/a
Summary of the method: (§2)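 Barnyardgrass, bulrush and ducksalad were co-sown in alluvial soil flooded to 4 cm and grown in a greenhouse at 25 to 30° C. At the 1- or 2-leaf stage, water-diluted emulsifiable concentrates went onto the water surface at set doses (g/a). Herbicidal effect was scored three weeks later on a graded scale.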

bulrush [5] = test: as above; details: treatment during the vegetation period under submerged conditions; dose 2.52 g/a
Summary of the method: as §2

ducksalad [6] = test: as above; details: treatment during the vegetation period under submerged conditions; dose 2.52 g/a
Summary of the method: as §2

Italian ryegrass [7] = test: Test Example 3: herbicidal effects in soil treatment; details: dose 3.2 g/a
Summary of the method: (§3)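 Seeds were sown in sterilized diluvial soil and covered with about 1.5 cm of soil. Compounds, formulated as emulsifiable concentrates and diluted with water, were sprayed evenly over the soil surface at set doses in g/a. Herbicidal effect was scored on a rating scale three weeks later.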

barnyardgrass [8] = test: as above; details: dose 3.2 g/a
Summary of the method: as §3

beadstraw [9] = test: as above; details: dose 3.2 g/a
Summary of the method: as §3

common chickweed [10] = test: as above; details: dose 3.2 g/a
Summary of the method: as §3

common lambsquater [11] = test: as above; details: dose 3.2 g/a
Summary of the method: as §3

common ragweed [12] = test: as above; details: dose 3.2 g/a
Summary of the method: as §3

giant foxtail [13] = test: as above; details: dose 3.2 g/a
Summary of the method: as §3

large crabgrass [14] = test: as above; details: dose 3.2 g/a
Summary of the method: as §3

posumbu knotweed [15] = test: as above; details: dose 3.2 g/a
Summary of the method: as §3

redroot pigweed [16] = test: as above; details: dose 3.2 g/a
Summary of the method: as §3

velvetleaf [17] = test: as above; details: dose 3.2 g/a
Summary of the method: as §3

water foxtail [18] = test: as above; details: dose 3.2 g/a
Summary of the method: as §3

wild oat [19] = test: as above; details: dose 3.2 g/a
Summary of the method: as §3

Italian ryegrass [20] = test: Test Example 4: herbicidal effect in foliage treatment; details: dose 3.2 g/a
Summary of the method: (§4)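 Visual herbicidal scores on a graded scale were recorded three weeks after foliar application. Compounds went on as diluted emulsifiable concentrates at predetermined g/a to plants grown 14 days in a 25 to 30° C greenhouse.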

barnyardgrass [21] = test: as above; details: dose 3.2 g/a
Summary of the method: as §4

beadstraw [22] = test: as above; details: dose 3.2 g/a, three weeks after application
Summary of the method: as §4

common chickweed [23] = test: as above; details: dose 3.2 g/a
Summary of the method: as §4

common lambsquater [24] = test: as above; details: dose 3.2 g/a
Summary of the method: as §4

common ragweed [25] = test: as above; details: dose 3.2 g/a
Summary of the method: as §4

giant foxtail [26] = test: as above; details: dose 3.2 g/a
Summary of the method: as §4

large crabgrass [27] = test: as above; details: dose 3.2 g/a
Summary of the method: as §4

posumbu knotweed [28] = test: as above; details: dose 3.2 g/a
Summary of the method: as §4

redroot pigweed [29] = test: as above; details: dose 3.2 g/a
Summary of the method: as §4

velvetleaf [30] = test: as above; details: dose 3.2 g/a
Summary of the method: as §4

water foxtail [31] = test: as above; details: dose 3.2 g/a
Summary of the method: as §4

wild oat [32] = test: as above; details: dose 3.2 g/a, three weeks after the application
Summary of the method: as §4

[33] = three weeks after the application

## CCC(=O)N(c1ccccc1CN1COC2(CCCC2)CC1=O)S(=O)(=O)C(F)(F)F [II-65]
Barnyardgrass [1]
  A: barnyardgrass, herbicidal effect (evaluation scale 0-5): 5 (mortality of 90% or above (nearly complete death))
Bulrush [2]
  B: bulrush, herbicidal effect (evaluation scale 0-5): 5 (mortality of 90% or above (nearly complete death))
Ducksalad [3]
  C: ducksalad, herbicidal effect (evaluation scale 0-5): 5 (mortality of 90% or above (nearly complete death))
Transplanted rice
  a: transplanted rice, effect on crop (evaluation scale 0-5): 0 (mortality of less than 5% (almost ineffective))
Barnyardgrass [4]
  A: barnyardgrass, herbicidal effect (evaluation scale 0-5): 5 (mortality of 90% or above (nearly complete death))
Bulrush [5]
  B: bulrush, herbicidal effect (evaluation scale 0-5): 5 (mortality of 90% or above (nearly complete death))
Ducksalad [6]
  C: ducksalad, herbicidal effect (evaluation scale 0-5): 5 (mortality of 90% or above (nearly complete death))
Italian ryegrass [7]
  H: Italian ryegrass, herbicidal effect (evaluation scale 0-5): 5 (mortality of 90% or above (nearly complete death))
Barnyardgrass [8]
  A: barnyardgrass, herbicidal effect (evaluation scale 0-5): 5 (mortality of 90% or above (nearly complete death))
Beadstraw [9]
  O: beadstraw, herbicidal effect (evaluation scale 0-5): 0 (mortality of less than 5% (almost ineffective))
Common chickweed [10]
  N: common chickweed, herbicidal effect (evaluation scale 0-5): 5 (mortality of 90% or above (nearly complete death))
Common lambsquater [11]
  L: common lambsquater, herbicidal effect (evaluation scale 0-5): 0 (mortality of less than 5% (almost ineffective))
Common ragweed [12]
  J: common ragweed, herbicidal effect (evaluation scale 0-5): 4 (mortality of at least 70% and less than 90%)
Giant foxtail [13]
  E: giant foxtail, herbicidal effect (evaluation scale 0-5): 5 (mortality of 90% or above (nearly complete death))
Large crabgrass [14]
  D: large crabgrass, herbicidal effect (evaluation scale 0-5): 5 (mortality of 90% or above (nearly complete death))
Posumbu knotweed [15]
  M: posumbu knotweed, herbicidal effect (evaluation scale 0-5): 4 (mortality of at least 70% and less than 90%)
Redroot pigweed [16]
  K: redroot pigweed, herbicidal effect (evaluation scale 0-5): 2 (mortality of at least 20% and less than 40%)
Velvetleaf [17]
  I: velvetleaf, herbicidal effect (evaluation scale 0-5): 3 (mortality of at least 40% and less than 70%)
Water foxtail [18]
  G: water foxtail, herbicidal effect (evaluation scale 0-5): 5 (mortality of 90% or above (nearly complete death))
Wild oat [19]
  F: wild oat, herbicidal effect (evaluation scale 0-5): 0 (mortality of less than 5% (almost ineffective))
Italian ryegrass [20]; three weeks after application
  H: Italian ryegrass, herbicidal effect: 3 (mortality of at least 40% and less than 70%)
Barnyardgrass [21]; three weeks after application
  A: barnyardgrass, herbicidal effect: 3 (mortality of at least 40% and less than 70%)
Beadstraw [22]
  O: beadstraw, herbicidal effect: 0 (mortality of less than 5% (almost ineffective))
Common chickweed [23]; three weeks after application
  N: common chickweed, herbicidal effect: 5 (mortality of 90% or above (nearly complete death))
Common lambsquater [24]; three weeks after application
  L: common lambsquater, herbicidal effect: 2 (mortality of at least 20% and less than 40%)
Common ragweed [25]; three weeks after application
  J: common ragweed, herbicidal effect: 3 (mortality of at least 40% and less than 70%)
Giant foxtail [26]; three weeks after application
  E: giant foxtail, herbicidal effect: 4 (mortality of at least 70% and less than 90%)
Large crabgrass [27]; three weeks after application
  D: large crabgrass, herbicidal effect: 3 (mortality of at least 40% and less than 70%)
Posumbu knotweed [28]; three weeks after application
  M: posumbu knotweed, herbicidal effect: 3 (mortality of at least 40% and less than 70%)
Redroot pigweed [29]; three weeks after application
  K: redroot pigweed, herbicidal effect: 0 (mortality of less than 5% (almost ineffective))
Velvetleaf [30]; three weeks after application
  I: velvetleaf, herbicidal effect: 3 (mortality of at least 40% and less than 70%)
Water foxtail [31]; three weeks after application
  G: water foxtail, herbicidal effect: 5 (mortality of 90% or above (nearly complete death))

## CC1OC(C)(C)CC(=O)N1Cc1ccccc1NS(=O)(=O)C(F)(F)F (stereo not shown) [II-72]
Barnyardgrass [1]
  A: barnyardgrass, herbicidal effect (evaluation scale 0-5): 5 (mortality of 90% or above (nearly complete death))
Bulrush [2]
  B: bulrush, herbicidal effect (evaluation scale 0-5): 5 (mortality of 90% or above (nearly complete death))
Ducksalad [3]
  C: ducksalad, herbicidal effect (evaluation scale 0-5): 5 (mortality of 90% or above (nearly complete death))
Transplanted rice
  a: transplanted rice, effect on crop (evaluation scale 0-5): 3 (mortality of at least 40% and less than 70%)
Barnyardgrass [4]
  A: barnyardgrass, herbicidal effect (evaluation scale 0-5): 5 (mortality of 90% or above (nearly complete death))
Bulrush [5]
  B: bulrush, herbicidal effect (evaluation scale 0-5): 5 (mortality of 90% or above (nearly complete death))
Ducksalad [6]
  C: ducksalad, herbicidal effect (evaluation scale 0-5): 5 (mortality of 90% or above (nearly complete death))
Italian ryegrass [7]
  H: Italian ryegrass, herbicidal effect (evaluation scale 0-5): 5 (mortality of 90% or above (nearly complete death))
Barnyardgrass [8]
  A: barnyardgrass, herbicidal effect (evaluation scale 0-5): 5 (mortality of 90% or above (nearly complete death))
Beadstraw [9]
  O: beadstraw, herbicidal effect (evaluation scale 0-5): 4 (mortality of at least 70% and less than 90%)
Common chickweed [10]
  N: common chickweed, herbicidal effect (evaluation scale 0-5): 4 (mortality of at least 70% and less than 90%)
Common lambsquater [11]
  L: common lambsquater, herbicidal effect (evaluation scale 0-5): 0 (mortality of less than 5% (almost ineffective))
Common ragweed [12]
  J: common ragweed, herbicidal effect (evaluation scale 0-5): 4 (mortality of at least 70% and less than 90%)
Giant foxtail [13]
  E: giant foxtail, herbicidal effect (evaluation scale 0-5): 5 (mortality of 90% or above (nearly complete death))
Large crabgrass [14]
  D: large crabgrass, herbicidal effect (evaluation scale 0-5): 5 (mortality of 90% or above (nearly complete death))
Redroot pigweed [16]
  K: redroot pigweed, herbicidal effect (evaluation scale 0-5): 3 (mortality of at least 40% and less than 70%)
Water foxtail [18]
  G: water foxtail, herbicidal effect (evaluation scale 0-5): 5 (mortality of 90% or above (nearly complete death))
Italian ryegrass [20]; [33]
  H: Italian ryegrass, herbicidal effect: 5 (mortality of 90% or above (nearly complete death))
Barnyardgrass [21]; [33]
  A: barnyardgrass, herbicidal effect: 4 (mortality of at least 70% and less than 90%)
Common chickweed [23]; [33]
  N: common chickweed, herbicidal effect: 3 (mortality of at least 40% and less than 70%)
Common lambsquater [24]; [33]
  L: common lambsquater, herbicidal effect: 1 (mortality of at least 5% and less than 20%)
Common ragweed [25]; [33]
  J: common ragweed, herbicidal effect: 3 (mortality of at least 40% and less than 70%)
Giant foxtail [26]; [33]
  E: giant foxtail, herbicidal effect: 4 (mortality of at least 70% and less than 90%)
Large crabgrass [27]; [33]
  D: large crabgrass, herbicidal effect: 4 (mortality of at least 70% and less than 90%)
Posumbu knotweed [28]; [33]
  M: posumbu knotweed, herbicidal effect: 3 (mortality of at least 40% and less than 70%)
Redroot pigweed [29]; [33]
  K: redroot pigweed, herbicidal effect: 2 (mortality of at least 20% and less than 40%)
Velvetleaf [30]; [33]
  I: velvetleaf, herbicidal effect: 5 (mortality of 90% or above (nearly complete death))
Water foxtail [31]; [33]
  G: water foxtail, herbicidal effect: 5 (mortality of 90% or above (nearly complete death))
Wild oat [32]
  F: wild oat, herbicidal effect: 1 (mortality of at least 5% and less than 20%)

## CCOC(=O)N(c1ccccc1CN1C(=O)C(Br)C(C)(C)OC1C)S(=O)(=O)C(F)(F)F (stereo not shown) [II-76]
Italian ryegrass [7]
  herbicidal effect, H: Italian ryegrass: 0 (mortality of less than 5% (almost ineffective))
Barnyardgrass [8]
  herbicidal effect, A: barnyardgrass: 3 (mortality of at least 40% and less than 70%)
Beadstraw [9]
  herbicidal effect, O: beadstraw: 5 (mortality of 90% or above (nearly complete death))
Common chickweed [10]
  herbicidal effect, N: common chickweed: 3 (mortality of at least 40% and less than 70%)
Common lambsquater [11]
  herbicidal effect, L: common lambsquater: 3 (mortality of at least 40% and less than 70%)
Common ragweed [12]
  herbicidal effect, J: common ragweed: 0 (mortality of less than 5% (almost ineffective))
Giant foxtail [13]
  herbicidal effect, E: giant foxtail: 0 (mortality of less than 5% (almost ineffective))
Large crabgrass [14]
  herbicidal effect, D: large crabgrass: 3 (mortality of at least 40% and less than 70%)
Redroot pigweed [16]
  herbicidal effect, K: redroot pigweed: 3 (mortality of at least 40% and less than 70%)
Velvetleaf [17]
  herbicidal effect, I: velvetleaf: 3 (mortality of at least 40% and less than 70%)
Water foxtail [18]
  herbicidal effect, G: water foxtail: 5 (mortality of 90% or above (nearly complete death))
Wild oat [19]
  herbicidal effect, F: wild oat: 0 (mortality of less than 5% (almost ineffective))
